Results as given in patent US11325938B2, “CD73 inhibitors” (ORIC Pharmaceuticals, Inc., priority 2018, dated 2022).

Target: CD73 (Homo sapiens (Human), UniProt P21589)
Test: Biochemical assay: inhibition of CD73 activity (AMP hydrolysis, Malachite Green readout)
Conditions: CD73 0.3208 nM, AMP 15 μM, 25 mM Tris-HCl pH 7.4, RT, absorbance 620 nm
Experimental: Example A1: Biochemical Assay
Assay Reaction Conditions
• Assay Volume: 70 μl • Reaction Volume: 50 μl • CD73: 0.3208 nM • AMP: 15 μM • Assay Buffer: 25 mM Tris-HCL, pH 7.4, 0.01% Brij-35, 0.01% BSA, 5 mM MgCl2 Assay Procedure:
Made dose titration of testing compounds in assay buffer, 10 points ½ log titrations in duplicates starting at 100 μM.
Added 25 μl of CD73 to each well for a final concentration of 320 pM.
Incubated at RT for 15 min.
Added 25 μl of AMP to each well for a final concentration of 15 μM.
Incubated at RT for 10 min.
Added 10 μl of Malachite Green Reagent A, incubate at RT for 10 min.
Added 10 of Malachite Green Reagent B, incubate at RT for 45 min.
Read the Absorbance on Envision plate reader using excitation filter: Cy5 […].
The ability of the compounds disclosed herein to inhibit CD73 activity was quantified and the respective IC50 values were determined. Table 2 provides the biochemical IC50 values of compounds disclosed herein.

Sequence of CD73 (P21589 27-574): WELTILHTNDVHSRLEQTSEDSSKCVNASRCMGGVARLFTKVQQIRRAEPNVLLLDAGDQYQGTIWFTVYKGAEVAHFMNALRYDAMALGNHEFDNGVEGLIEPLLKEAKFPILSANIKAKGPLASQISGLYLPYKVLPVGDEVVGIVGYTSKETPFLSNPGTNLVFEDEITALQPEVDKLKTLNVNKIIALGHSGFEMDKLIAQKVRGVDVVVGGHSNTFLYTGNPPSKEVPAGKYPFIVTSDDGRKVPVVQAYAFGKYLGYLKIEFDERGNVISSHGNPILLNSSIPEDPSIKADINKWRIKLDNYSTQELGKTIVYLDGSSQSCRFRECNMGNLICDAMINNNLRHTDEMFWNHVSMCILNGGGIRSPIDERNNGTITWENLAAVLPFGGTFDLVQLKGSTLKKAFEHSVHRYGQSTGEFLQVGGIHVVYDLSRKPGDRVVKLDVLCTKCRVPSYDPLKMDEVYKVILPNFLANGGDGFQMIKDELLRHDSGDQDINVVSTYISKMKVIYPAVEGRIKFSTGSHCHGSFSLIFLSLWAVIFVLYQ

SMILES | IC50
O=P(O)(O)COC[C@H]1O[C@@H](n2nnc3c(NC4CCCC4)cc(Cl)nc32)[C@H](O)[C@@H]1O [Example 17, ((((2R,3S,4R,5R)-5-(5-Chloro-7-(cyclopentylamino)-3H-[1,2,3]triazolo[4,5-b]pyridin-3-yl)-3,4-dihydroxytetrahydrofuran-2-yl)methoxy)methyl)phosphonic acid] | 0.1 to 1 µM
O=C(O)c1ccc(C[C@@](CO)(OC[C@H]2O[C@@H](n3ncc4c(NC5CCCC5)nc(Cl)nc43)[C@H](O)[C@@H]2O)P(=O)(O)O)cc1 (racemic) [Example 187, rac-4-((R)-2-(((2R,3S,4R,5R)-5-(6-chloro-4-(cyclopentylamino)-1H-pyrazolo[3,4-d]pyrimidin-1-yl)-3,4-dihydroxytetrahydrofuran-2-yl)methoxy)-3-hydroxy-2-phosphonopropyl)benzoic acid] | 0.1 to 1 µM
C[C@](CO)(OC[C@H]1O[C@@H](n2nnc3c(NC4CCCC4)cc(Cl)nc32)[C@H](O)[C@@H]1O)P(=O)(O)O [Example 140, ((S)-2-(((2R,3S,4R,5R)-5-(5-chloro-7-(cyclopentylamino)-3H-[1,2,3]triazolo[4,5-b]pyridin-3-yl)-3,4-dihydroxytetrahydrofuran-2-yl)methoxy)-1-hydroxypropan-2-yl)phosphonic acid] | ≤ 0.1 µM
CCC(OC[C@H]1O[C@@H](n2ncc3c(NC4CCCC4)nc(Cl)nc32)[C@H](O)[C@@H]1O)P(=O)(O)O (stereo partly drawn) [Example 14, (1-(((2R,3S,4R,5R)-5-(6-chloro-4-(cyclopentylamino)-1H-pyrazolo[3,4-d]pyrimidin-1-yl)-3,4-dihydroxytetrahydrofuran-2-yl)methoxy)propyl)phosphonic acid] | ≤ 0.1 µM
COP(=O)(CP(=O)(O)O)OC[C@H]1O[C@@H](n2nnc3c(NC4CCCC4)cc(Cl)nc32)[C@H](O)[C@@H]1O (stereo partly drawn) [Example 54, (((((2R,3S,4R,5R)-5-(5-chloro-7-(cyclopentylamino)-3H-[1,2,3]triazolo[4,5-b]pyridin-3-yl)-3,4-dihydroxytetrahydrofuran-2-yl)methoxy)(methoxy)phosphoryl)methyl)phosphonic acid] | ≤ 0.1 µM
CC(CO)(OC[C@H]1O[C@@H](n2ncc3c(NC4CCCC4)nc(CCCO)nc32)[C@H](O)[C@@H]1O)P(=O)(O)O (stereo partly drawn) [Example 88, 2-(((2R,3S,4R,5R)-5-(4-(Cyclopentylamino)-6-(3-hydroxypropyl)-1H-pyrazolo[3,4-d]pyrimidin-1-yl)-3,4-dihydroxytetrahydrofuran-2-yl)methoxy)-1-hydroxypropan-2-ylphosphonic acid] | ≤ 0.1 µM
CN(c1nc(Cl)nc2c1cnn2[C@@H]1O[C@H](COC(CO)(CO)P(=O)(O)O)[C@@H](O)[C@H]1O)C1CCCC1 (racemic) [Example 211, rac-(2-(((2R,3S,4R,5R)-5-(6-chloro-4-(cyclopentyl(methyl)amino)-1H-pyrazolo[3,4-d]pyrimidin-1-yl)-3,4-dihydroxytetrahydrofuran-2-yl)methoxy)-1,3-dihydroxypropan-2-yl)phosphonic acid] | ≤ 0.1 µM

Further lines, results first:

IC50 | SMILES
≤ 0.1 µM | C[C@H](O)COc1nc(NC2CCCC2)c2cnn([C@@H]3O[C@H](COC(CO)(CO)P(=O)(O)O)[C@@H](O)[C@H]3O)c2n1 (racemic) [Example 181, rac-(2-(((2R,3S,4R,5R)-5-(4-(cyclopentylamino)-6-((S)-2-hydroxypropoxy)-1H-pyrazolo[3,4-d]pyrimidin-1-yl)-3,4-dihydroxytetrahydrofuran-2-yl)methoxy)-1,3-dihydroxypropan-2-yl)phosphonic acid]
≤ 0.1 µM | O=P(O)(O)C(CO)(CO)OC[C@H]1O[C@H](n2ncc3c(NCc4ccc(Cl)cc4)nc(Cl)nc32)[C@H](O)[C@@H]1O (racemic) [Example 203, rac-(2-(((2R,3S,4R,5S)-5-(6-chloro-4-((4-chlorobenzyl)amino)-1H-pyrazolo[3,4-d]pyrimidin-1-yl)-3,4-dihydroxytetrahydrofuran-2-yl)methoxy)-1,3-dihydroxypropan-2-yl)phosphonic acid]
≤ 0.1 µM | O=c1[nH]c(CC(CO)(OC[C@H]2O[C@@H](n3ncc4c(NC5CCCC5)nc(Cl)nc43)[C@H](O)[C@@H]2O)P(=O)(O)O)no1 (mixture of isomers) [Example 206, rac-(2-(((2R,3S,4R,5R)-5-(6-chloro-4-(cyclopentylamino)-1H-pyrazolo[3,4-d]pyrimidin-1-yl)-3,4-dihydroxytetrahydrofuran-2-yl)methoxy)-1-hydroxy-3-(5-oxo-4,5-dihydro-1,2,4-oxadiazol-3-yl)propan-2-yl)phosphonic acid]
≤ 0.1 µM | O=P(O)(O)COC[C@H]1O[C@@H](n2nnc3c(NCC4CCC4)cc(Cl)nc32)[C@H](O)[C@@H]1O [Example 24, ((((2R,3S,4R,5R)-5-(5-chloro-7-((cyclobutylmethyl)amino)-3H-[1,2,3]triazolo[4,5-b]pyridin-3-yl)-3,4-dihydroxytetrahydrofuran-2-yl)methoxy)methyl)phosphonic acid]
≤ 0.1 µM | CCOCC(C)(OC[C@H]1O[C@@H](n2ncc3c(NC4CCCC4)nc(Cl)nc32)[C@H](O)[C@@H]1O)P(=O)(O)O (stereo partly drawn) [Example 156, (2-(((2R,3S,4R,5R)-5-(6-chloro-4-(cyclopentylamino)-1H-pyrazolo[3,4-d]pyrimidin-1-yl)-3,4-dihydroxytetrahydrofuran-2-yl)methoxy)-1-ethoxypropan-2-yl)phosphonic acid]
≤ 0.1 µM | O=P(O)(O)C(CO)(Cc1nc[nH]n1)OC[C@H]1O[C@@H](n2ncc3c(NC4CCCC4)nc(Cl)nc32)[C@H](O)[C@@H]1O (mixture of isomers) [Example 219, rac-(2-(((2R,3S,4R,5R)-5-(6-chloro-4-(cyclopentylamino)-1H-pyrazolo[3,4-d]pyrimidin-1-yl)-3,4-dihydroxytetrahydrofuran-2-yl)methoxy)-1-hydroxy-3-(1H-1,2,4-triazol-3-yl)propan-2-yl)phosphonic acid]
≤ 0.1 µM | O=P(O)(O)C(CO)(CO)OC[C@H]1O[C@@H](n2ncc3c(N[C@@H]4CCCc5ccccc54)nc(Cl)nc32)[C@H](O)[C@@H]1O (racemic) [Example 189, rac-(2-(((2R,3S,4R,5R)-5-(6-chloro-4-(((R)-1,2,3,4-tetrahydronaphthalen-1-yl)amino)-1H-pyrazolo[3,4-d]pyrimidin-1-yl)-3,4-dihydroxytetrahydrofuran-2-yl)methoxy)-1,3-dihydroxypropan-2-yl)phosphonic acid]
≤ 0.1 µM | CC(O)C(OC[C@H]1O[C@@H](n2ncc3c(NC4CCCC4)nc(Cl)nc32)[C@H](O)[C@@H]1O)P(=O)(O)O (stereo partly drawn) [Example 42, (1-(((2R,3S,4R,5R)-5-(6-chloro-4-(cyclopentylamino)-1H-pyrazolo[3,4-d]pyrimidin-1-yl)-3,4-dihydroxytetrahydrofuran-2-yl)methoxy)-2-hydroxypropyl)phosphonic acid]
≤ 0.1 µM | CC(CO)(OC[C@H]1O[C@@H](n2nnc3c(NC4CCCC4)nc(Cl)nc32)[C@H](O)[C@@H]1O)P(=O)(O)O (stereo partly drawn) [Example 67, (2-(((2R,3S,4R,5R)-5-(5-chloro-7-(cyclopentylamino)-3H-[1,2,3]triazolo[4,5-d]pyrimin-3-yl)-3,4-dihydroxytetrahydrofuran-2-yl)methoxy)-1-hydroxypropan-2-yl)phosphonic acid]
